Measurements: patent US20140088103A1, “(FUSED RING ARYLAMINO AND HETEROCYCLYLAMINO) PYRIMIDINYL AND 1,3,5-TRIAZINYL BENZIMIDAZOLES, PHARMACEUTICAL COMPOSITIONS THEREOF, AND THEIR USE IN TREATING PROLIFERATIVE DISEASES” (MEI PHARMA, INC., priority 2011, published 2014)

Columns and labels:
[1] = target: T1, PI3K alpha (p110α) (Homo sapiens, UniProt P42336); experiment: Luciferase-based luminescence assay (Kinase GLO), PI3K alpha; format: biochemical; settings: 1.65 nM enzyme, 50 μM PIP2, 25 μM ATP, 1 hour reaction
T1 construct: purchased Invitrogen Corp., Carlsbad, Calif., USA
Protocol: (§1) PI3K catalyzes the conversion of phosphatidylinositol-4,5-bisphosphate (PIP2) and ATP to phosphatidylinositol-3,4,5-trisphosphate (PIP3) and ADP. PI3K enzymatic activity was determined by measuring the amount of ATP consumed following the kinase reaction using a luciferase-based luminescence assay (Kinase GLO®, Promega Corp., Madison, Wis., USA) in a reaction buffer. The reaction buffer contained 50 mM HEPES, pH 7.5, 3 mM MgCl2, 1 mM EGTA, 100 mM NaCl, 0.03% CHAPS, and 2 mM DTT. Compounds for testing were dissolved and serially diluted in 100% DMSO (total of 10 concentrations), and then diluted 1:25 in the reaction buffer. PI3K enzyme solutions were prepared by diluting PI3K alpha (Invitrogen Corp., Carlsbad, Calif., USA) or PI3K delta (Millipore, Billerica, Mass., USA) in the reaction buffer to 4× the final assay concentration. The final concentrations of enzymes were 1.65 nM and 6.86 nM for PI3K alpha and PI3K delta, respectively. A substrate solution was prepared by mixing PIP2 and ATP in reaction buffer at 2× the final assay concentration. The final concentrations were 50 μM and 25 μM for PIP2 and ATP, respectively. To individual wells of white low volume 384-well assay plates were added 2.5 μl each of the compound and kinase mixtures, followed by shaking. The reactions were started by adding 5 μl of substrate mixture per well and shaking. The assay plates were covered and reactions were allowed to proceed for 1 hour (PI3K alpha) or 2 hours (PI3K delta), after which 10 μl of Kinase GLO® reagent was added. The plates were briefly centrifuged and incubated for 10 minutes, after which luminescence was measured using a FlexStation plate reader (Molecular Devices, Sunnyvale, Calif., USA). IC50 values were determined by curve fitting using Graphpad Prism software (Graphpad Software, La Jolla, Calif., USA).

[2] = target: T2, PI3K delta (p110δ) (Homo sapiens, UniProt O00329); experiment: Luciferase-based luminescence assay (Kinase GLO), PI3K delta; format: biochemical; settings: for IC50: 6.86 nM enzyme, 50 μM PIP2, 25 μM ATP, 2 hours reaction; for α/δ ratio: ratio of IC50 against PI3Kα over IC50 against PI3Kδ
T2 construct: purchased Millipore, Billerica, Mass., USA
Protocol: as §1

T2 sequence (O00329 whole entry): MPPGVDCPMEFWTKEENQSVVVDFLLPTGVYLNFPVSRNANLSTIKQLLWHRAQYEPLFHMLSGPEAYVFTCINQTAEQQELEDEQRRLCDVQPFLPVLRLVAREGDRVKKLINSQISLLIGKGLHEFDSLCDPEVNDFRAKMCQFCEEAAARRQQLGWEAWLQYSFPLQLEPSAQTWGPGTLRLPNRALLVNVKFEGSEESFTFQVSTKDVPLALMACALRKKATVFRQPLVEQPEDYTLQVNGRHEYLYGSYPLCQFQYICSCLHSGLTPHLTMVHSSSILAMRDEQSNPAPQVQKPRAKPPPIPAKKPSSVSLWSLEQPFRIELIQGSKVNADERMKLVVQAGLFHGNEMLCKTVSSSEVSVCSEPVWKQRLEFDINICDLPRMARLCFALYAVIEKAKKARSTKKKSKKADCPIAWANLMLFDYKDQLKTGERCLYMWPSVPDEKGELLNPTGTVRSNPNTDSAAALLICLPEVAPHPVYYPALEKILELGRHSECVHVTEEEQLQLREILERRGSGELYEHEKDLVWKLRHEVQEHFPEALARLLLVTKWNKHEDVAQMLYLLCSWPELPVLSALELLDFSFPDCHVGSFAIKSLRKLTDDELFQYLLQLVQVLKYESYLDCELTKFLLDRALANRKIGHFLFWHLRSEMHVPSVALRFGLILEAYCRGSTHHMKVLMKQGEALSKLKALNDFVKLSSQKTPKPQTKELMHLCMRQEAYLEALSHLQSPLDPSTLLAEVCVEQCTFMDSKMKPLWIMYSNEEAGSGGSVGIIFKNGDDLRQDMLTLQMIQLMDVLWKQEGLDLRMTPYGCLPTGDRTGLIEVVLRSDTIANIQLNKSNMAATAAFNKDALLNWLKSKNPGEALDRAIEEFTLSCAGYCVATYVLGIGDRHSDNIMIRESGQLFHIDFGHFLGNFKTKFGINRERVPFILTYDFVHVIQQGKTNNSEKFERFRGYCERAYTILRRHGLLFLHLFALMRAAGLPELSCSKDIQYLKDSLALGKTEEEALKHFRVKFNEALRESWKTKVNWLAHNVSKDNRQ
T2 sequence (P27986 whole entry partner): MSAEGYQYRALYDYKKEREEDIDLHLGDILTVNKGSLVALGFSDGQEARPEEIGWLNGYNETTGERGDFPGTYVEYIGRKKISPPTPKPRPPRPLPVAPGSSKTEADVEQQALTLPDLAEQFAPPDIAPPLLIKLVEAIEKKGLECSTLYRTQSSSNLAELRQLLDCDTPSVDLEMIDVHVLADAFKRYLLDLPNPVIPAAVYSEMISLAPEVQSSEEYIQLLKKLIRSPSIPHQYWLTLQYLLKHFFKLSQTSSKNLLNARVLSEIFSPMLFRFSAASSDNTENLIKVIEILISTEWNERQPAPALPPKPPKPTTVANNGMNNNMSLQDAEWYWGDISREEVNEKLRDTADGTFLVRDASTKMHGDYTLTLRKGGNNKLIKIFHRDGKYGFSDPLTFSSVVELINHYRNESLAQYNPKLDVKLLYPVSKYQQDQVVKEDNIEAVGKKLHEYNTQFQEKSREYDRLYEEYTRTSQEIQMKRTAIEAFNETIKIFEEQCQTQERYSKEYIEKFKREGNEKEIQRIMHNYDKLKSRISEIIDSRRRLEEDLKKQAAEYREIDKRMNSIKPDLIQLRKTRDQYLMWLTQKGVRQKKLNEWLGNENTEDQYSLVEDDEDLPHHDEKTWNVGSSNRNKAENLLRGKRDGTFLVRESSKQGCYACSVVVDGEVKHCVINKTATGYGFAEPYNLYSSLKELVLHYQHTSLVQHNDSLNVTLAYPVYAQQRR
T1 sequence (P42336 whole entry): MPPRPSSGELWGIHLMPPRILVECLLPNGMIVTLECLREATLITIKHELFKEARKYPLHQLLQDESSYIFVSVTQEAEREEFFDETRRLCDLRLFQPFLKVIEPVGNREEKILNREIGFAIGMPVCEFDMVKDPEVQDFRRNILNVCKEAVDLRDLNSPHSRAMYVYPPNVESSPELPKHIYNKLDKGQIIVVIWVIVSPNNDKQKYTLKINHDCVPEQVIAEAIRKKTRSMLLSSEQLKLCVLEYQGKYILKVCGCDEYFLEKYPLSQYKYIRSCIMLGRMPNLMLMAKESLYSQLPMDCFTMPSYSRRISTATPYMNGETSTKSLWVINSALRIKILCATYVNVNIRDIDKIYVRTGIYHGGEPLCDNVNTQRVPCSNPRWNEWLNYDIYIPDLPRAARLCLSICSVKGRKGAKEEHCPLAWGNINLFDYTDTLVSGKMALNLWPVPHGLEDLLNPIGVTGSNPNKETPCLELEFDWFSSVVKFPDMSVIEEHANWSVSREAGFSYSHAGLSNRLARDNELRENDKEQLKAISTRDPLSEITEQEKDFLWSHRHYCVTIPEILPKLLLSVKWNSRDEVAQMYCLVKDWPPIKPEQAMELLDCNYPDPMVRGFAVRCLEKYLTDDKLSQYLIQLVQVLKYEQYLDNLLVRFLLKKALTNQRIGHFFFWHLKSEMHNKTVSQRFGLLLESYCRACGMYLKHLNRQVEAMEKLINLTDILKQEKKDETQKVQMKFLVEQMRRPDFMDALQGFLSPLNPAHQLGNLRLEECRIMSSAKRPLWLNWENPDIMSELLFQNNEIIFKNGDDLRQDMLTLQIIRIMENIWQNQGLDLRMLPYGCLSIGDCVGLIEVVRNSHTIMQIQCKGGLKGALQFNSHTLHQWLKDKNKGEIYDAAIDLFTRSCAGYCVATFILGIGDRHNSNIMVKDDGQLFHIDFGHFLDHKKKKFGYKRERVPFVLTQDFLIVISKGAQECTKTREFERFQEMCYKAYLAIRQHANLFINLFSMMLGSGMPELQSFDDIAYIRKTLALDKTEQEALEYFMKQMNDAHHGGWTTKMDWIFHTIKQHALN
T1 sequence (P27986 whole entry partner): as the sequence (P27986 whole entry partner) above

IC50 [1] [nM] | IC50 [2] [nM] | SMILES | α/δ ratio [2]
> 500 | 100 to 200 | FC(F)c1nc2ccccc2n1-c1nc(NC2CCCc3ccccc32)nc(N2CCOCC2)n1 (stereo not drawn) [Compound A1, 4-(2-(difluoromethyl)-1H-benzo[d]imidazol-1-yl)-6-morpholino-N-(1,2,3,4-tetrahydronaphthalen-1-yl)-1,3,5-triazin-2-amine] | A′ (A′ represents a ratio of greater than 8)
> 500 | ≤ 100 | FC(F)c1nc2ccccc2n1-c1nc(N[C@H]2CCCc3ccccc32)nc(N2CCOCC2)n1 [Compound A2, (S)-4-(2-(difluoromethyl)-1H-benzo[d]imidazol-1-yl)-6-morpholino-N-(1,2,3,4-tetrahydronaphthalen-1-yl)-1,3,5-triazin-2-amine] | A′ (A′ represents a ratio of greater than 8)
> 500 | > 500 | FC(F)c1nc2ccccc2n1-c1nc(N[C@@H]2CCCc3ccccc32)nc(N2CCOCC2)n1 [Compound A3, (R)-4-(2-(difluoromethyl)-1H-benzo[d]imidazol-1-yl)-6-morpholino-N-(1,2,3,4-tetrahydronaphthalen-1-yl)-1,3,5-triazin-2-amine] | B′ (B′ represents a ratio of no less than 4 but no greater than 8)
> 500 | ≤ 100 | FC(F)c1nc2ccccc2n1-c1nc(NC2CCc3ccccc32)nc(N2CCOCC2)n1 (stereo not drawn) [Compound A4, 4-(2-(difluoromethyl)-1H-benzo[d]imidazol-1-yl)-N-(2,3-dihydro-1H-inden-1-yl)-6-morpholino-1,3,5-triazin-2-amine] | A′ (A′ represents a ratio of greater than 8)
> 500 | 100 to 200 | FC(F)c1nc2ccccc2n1-c1nc(N[C@H]2CCc3ccccc32)nc(N2CCOCC2)n1 [Compound A5, (S)-4-(2-(difluoromethyl)-1H-benzo[d]imidazol-1-yl)-N-(2,3-dihydro-1H-inden-1-yl)-6-morpholino-1,3,5-triazin-2-amine] | A′ (A′ represents a ratio of greater than 8)
> 500 | 200 to 500 | FC(F)c1nc2ccccc2n1-c1nc(N[C@@H]2CCc3ccccc32)nc(N2CCOCC2)n1 [Compound A6, (R)-4-(2-(difluoromethyl)-1H-benzo[d]imidazol-1-yl)-N-(2,3-dihydro-1H-inden-1-yl)-6-morpholino-1,3,5-triazin-2-amine] | C′ (C′ represents a ratio of greater than 2 but less than 4)
> 500 | > 500 | FC(F)c1nc2ccccc2n1-c1nc(NC2CCc3cc(Cl)ccc32)nc(N2CCOCC2)n1 (stereo not drawn) [Compound A7, N-(5-chloro-2,3-dihydro-1H-inden-1-yl)-4-(2-(difluoromethyl)-1H-benzo[d]imidazol-1-yl)-6-morpholino-1,3,5-triazin-2-amine] | A′ (A′ represents a ratio of greater than 8)
> 500 | 200 to 500 | FC(F)c1nc2ccccc2n1-c1nc(NC2CCc3ccc(Cl)cc32)nc(N2CCOCC2)n1 (stereo not drawn) [Compound A8, N-(6-chloro-2,3-dihydro-1H-inden-1-yl)-4-(2-(difluoromethyl)-1H-benzo[d]imidazol-1-yl)-6-morpholino-1,3,5-triazin-2-amine] | A′ (A′ represents a ratio of greater than 8)
> 500 | 200 to 500 | COc1ccc2c(c1)CCC2Nc1nc(N2CCOCC2)nc(-n2c(C(F)F)nc3ccccc32)n1 (stereo not drawn) [Compound A9, 4-(2-(difluoromethyl)-1H-benzo[d]imidazol-1-yl)-N-(5-methoxy-2,3-dihydro-1H-inden-1-yl)-6-morpholino-1,3,5-triazin-2-amine] | C′ (C′ represents a ratio of greater than 2 but less than 4)
> 500 | 200 to 500 | COc1ccc2c(c1)C(Nc1nc(N3CCOCC3)nc(-n3c(C(F)F)nc4ccccc43)n1)CC2 (stereo not drawn) [Compound A10, 4-(2-(difluoromethyl)-1H-benzo[d]imidazol-1-yl)-N-(6-methoxy-2,3-dihydro-1H-inden-1-yl)-6-morpholino-1,3,5-triazin-2-amine] | C′ (C′ represents a ratio of greater than 2 but less than 4)
100 to 200 | 100 to 200 | FC(F)c1nc2ccccc2n1-c1nc(NCc2ccccc2)nc(N2CCOCC2)n1 [Ref. 1, N-benzyl-4-(2-(difluoromethyl)-1H-benzo[d]imidazol-1-yl)-6-morpholino-1,3,5-triazin-2-amine, reference compound] | D′ (D′ represents a ratio of no greater than 2)
